Source: patent US20230203021A1, “GLP-1 RECEPTOR AGONIST, PHARMACEUTICAL COMPOSITION COMPRISING SAME, AND METHOD FOR PREPARING SAME” (LG CHEM, LTD., priority 2020, published 2023)
pEC50: −log10 of the molar value.

The molecules below were run against T1, hGLP-1R (Homo sapiens, UniProt P43220) (assay: Measurement of activity of GLP-1R agonist (cell-based luciferase assay), CHO-K1/hGLP-1R/CRE-luciferase cell line). Conditions: GLP-1R activity; CHO-K1/hGLP-1R/CRE-luciferase cells, 9 concentrations, four hours of incubation, Bright-Glo luminescence.
T1 construct: expressed in transfected cells; host or cells: CHO-K1
Method: 15,000 cells of a CHO-K1/hGLP-1R/CRE-luciferase cell line were seeded in a 96-well plate. A medium used herein was Ham’s F-12 Nutrient medium. The cells were incubated for 18 hours in a 5% CO2 incubator which was maintained at 37° C., and then treated with drugs. Each drug dispensed at 9 different concentrations was dissolved in a DMEM/F-12 + 1% FBS medium, and the cell line was treated with each of 100 µl thereof. After four hours of incubation, a Bright-Glo® luciferase assay system kit was used to add 30 µl of an assay reagent per well. A plate was stored at room temperature for 15 minutes, and then luminescence was measured using a SpectraMax M5 reader.

T1 sequence (P43220 24-463): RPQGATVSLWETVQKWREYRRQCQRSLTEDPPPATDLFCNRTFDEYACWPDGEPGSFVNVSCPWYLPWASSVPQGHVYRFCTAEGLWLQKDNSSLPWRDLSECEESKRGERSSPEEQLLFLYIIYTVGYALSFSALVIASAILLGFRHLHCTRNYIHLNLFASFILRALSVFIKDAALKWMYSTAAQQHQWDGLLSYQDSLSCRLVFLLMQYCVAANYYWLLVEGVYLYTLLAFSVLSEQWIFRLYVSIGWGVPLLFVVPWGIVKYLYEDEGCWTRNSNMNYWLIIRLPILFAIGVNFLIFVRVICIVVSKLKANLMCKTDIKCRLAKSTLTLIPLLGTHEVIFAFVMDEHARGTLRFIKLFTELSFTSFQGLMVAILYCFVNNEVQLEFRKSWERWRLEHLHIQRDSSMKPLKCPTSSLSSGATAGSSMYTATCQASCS

pEC50	Compound
< 7.10	O=C(O)c1ccc2nc(Oc3ccc(-c4cccc(OCc5ccc(Cl)cc5F)n4)cc3F)n(C[C@@H]3CCCO3)c2c1 [Example 31, (S)-2-(4-(6-((4-chloro-2-fluorobenzyl)oxy)pyridin-2-yl)-2-fluorophenoxy)-1-((tetrahydrofuran-2-yl)methyl)-1H-benzo[d]imidazole-6-carboxylic acid]
8.47	O=C(O)c1ccc2nc(Oc3ccc(-c4cccc(OCc5ccc(Cl)cc5F)n4)cc3Cl)n(C[C@@H]3CCCO3)c2c1 [Example 32, (S)-2-(2-chloro-4-(6-((4-chloro-2-fluorobenzyl)oxy)pyridin-2-yl)phenoxy)-1-((tetrahydrofuran-2-yl)methyl)-1H-benzo[d]imidazole-6-carboxylic acid]
9.44	O=C(O)c1ccc2nc(Cc3ccc(-c4cccc(OCc5ccc(Cl)cc5F)n4)cc3)n(C[C@H]3CCOC3)c2c1 [Example 33, (R)-2-(4-(6-((4-chloro-2-fluorobenzyl)oxy)pyridin-2-yl)benzyl)-1-((tetrahydrofuran-3-yl)methyl)-1H-benzo[d]imidazole-6-carboxylic acid]
10.06	O=C(O)c1ccc2nc(Cc3ccc(-c4cccc(OCc5ccc(Cl)cc5F)n4)c(Cl)c3)n(C[C@@H]3CCCO3)c2c1 [Example 34, (S)-2-(3-chloro-4-(6-((4-chloro-2-fluorobenzyl)oxy)pyridin-2-yl)benzyl)-1-((tetrahydrofuran-2-yl)methyl)-1H-benzo[d]imidazole-6-carboxylic acid]
9.11	O=C(O)c1ccc2nc(Cc3ccc(-c4cccc(OCc5ccc(Cl)cc5F)n4)cc3)n(C[C@@H]3CCOC3)c2c1 [Example 35, (S)-2-(4-(6-((4-chloro-2-fluorobenzyl)oxy)pyridin-2-yl)benzyl)-1-((tetrahydrofuran-3-yl)methyl)-1H-benzo[d]imidazole-6-carboxylic acid]
8.68	O=C(O)c1ccc2nc(Cc3ccc(-c4cccc(OCc5ccc(C(F)(F)F)cc5F)n4)cc3)n(C[C@@H]3CCOC3)c2c1 [Example 36, (S)-2-(4-(6-((2-fluoro-4-(trifluoromethyl)benzyl)oxy)pyridin-2-yl)benzyl)-1-((tetrahydrofuran-3-yl)methyl)-1H-benzo[d]imidazole-6-carboxylic acid]
8.87	O=C(O)c1ccc2nc(Cc3ccc(-c4cccc(OCc5ccc(Cl)cc5F)n4)c(Cl)c3)n(C[C@@H]3CCOC3)c2c1 [Example 37, (S)-2-(3-chloro-4-(6-((4-chloro-2-fluorobenzyl)oxy)pyridin-2-yl)benzyl)-1-((tetrahydrofuran-3-yl)methyl)-1H-benzo[d]imidazole-6-carboxylic acid]
